# BindingDB's records for doi:10.1016/j.bmcl.2011.07.114 (Pfizer, 2011)
# Biological target: Histamine H4 receptor (Homo sapiens, UniProt Q9H3N8)
# Experiment: Displacement of [3H]histamine from human histamine H4 receptor expressed in CHO cells after 90 mins by scintillation counting technique
# Chain of Histamine H4 receptor (Q9H3N8 whole entry): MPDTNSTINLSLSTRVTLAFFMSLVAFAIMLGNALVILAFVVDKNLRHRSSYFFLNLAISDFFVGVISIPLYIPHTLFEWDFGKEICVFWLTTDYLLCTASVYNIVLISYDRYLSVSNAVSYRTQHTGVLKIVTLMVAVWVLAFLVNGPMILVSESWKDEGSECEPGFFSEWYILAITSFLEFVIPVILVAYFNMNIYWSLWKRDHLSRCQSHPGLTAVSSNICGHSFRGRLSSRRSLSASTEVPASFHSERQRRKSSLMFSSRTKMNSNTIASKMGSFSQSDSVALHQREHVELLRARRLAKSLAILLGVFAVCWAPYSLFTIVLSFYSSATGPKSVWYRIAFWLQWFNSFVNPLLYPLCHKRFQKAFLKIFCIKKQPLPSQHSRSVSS
row,SMILES,Ki [µM]
1,COCc1ccc(CN2CC[C@H](Nc3cc(NCCC(C)(C)C)ncn3)C2)o1,20
2,CC(C)(C)CCNc1cc(N[C@H]2CCN(Cc3cccc(F)c3O)C2)ncn1,20
